The record followed here is patent publication US20230129258A1, “HETEROTANDEM BICYCLIC PEPTIDE COMPLEXES” (BicycleTx Limited, priority 2019, published 2023).

Starred links: 1 amine or outer side, 2 acyl side, 3 side chain; linkers in the order of their positions; H or OH if unused. Positions of bridges follow the written chain, without caps; N, C: chain ends. Non-standard residues stand in square brackets, D forms with d. Chains are numbered I, II in the order given. X1 = O=C(CCOCCOCCOCCN(CCOCCOCCOCCn1cc(CCC(=O)[*:2])nn1)CCOCCOCCOCCn1cc(CCC(=O)[*:3])nn1)[*:1]; TATA = O=C(CC[*:1])N1CN(C(=O)CC[*:2])CN(C(=O)CC[*:3])C1; d1Nal = N[C@H](Cc1cccc2ccccc12)C(=O)O; Hyp = O=C(O)[C@@H]1C[C@@H](O)CN1; hArg = N=C(N)NCCCC[C@H](N)C(=O)O; tBuAla = CC(C)(C)C[C@H](N)C(=O)O; Nle = CCCC[C@H](N)C(=O)O

One data set deals with MC38 #13 tumors. Briefly: Anti-tumor activity in syngeneic Nectin-4 overexpressing MC38 tumor model (MC38 #13). The note with it: for complete tumor responses: day 15; for complete responders: day 52, IV. The format is in vivo, C57BL/6J-hCD137 mice. The method, then:
6-8 weeks old C57BL/6J-hCD137 female mice were inoculated in the flank with 1×10^6 syngeneic Nectin-4 overexpressing MC38 cells (MC38 #13). When tumors reached 72 mm^3 size on average, mice were randomized to receive vehicle or BCY11863 (intraperitoneal administration). BCY11863 was administered (n=6 mice/treatment cohort) at either 1 mg/kg or 10 mg/kg either daily (QD) or every three days (Q3D). QD dosed mice received 16 doses of BCY11863 and Q3D dosed mice received […] of BCY11863. Tumor growth was monitored by caliper measurements until day 69 after treatment initiation. […] By day 48, 22 out of 24 BCY11863-treated animals had responded to the treatment completely and had no palpable tumors remaining.
6-8 week old female C57BL/6J-hCD137 mice [B-hTNFRSF9(CD137) mice; Biocytogen] were implanted subcutaneously with 1×10^6 MC38 #13 (MC38 cells engineered to overexpress murine Nectin-4) cells. Mice were randomized into treatment groups (n=6/cohort) when average tumor volumes reached around 95 mm^3 and were treated with a weekly dose of vehicle (25 mM histidine, 10% sucrose, pH7) or 10 mg/kg BCY11863 with two different dosing schedules for two dosing cycles (5 mg/kg BCY11863 at 0 h and 24 h on DO and D7, or 10 mg/kg at 0 h on DO and D7). All treatments were administered intravenously (IV). Tumor growth was monitored until Day 15 from treatment initiation.
At 3 weekly doses of 3, 10 and 30 mg/kg with dose fractionated weekly, biweekly and daily 6-8 week old female C57BL/6J-hCD137 mice [B-hTNFRSF9(CD137) mice; Biocytogen] were implanted subcutaneously with 1×10^6 MC38 #13 (MC38 cells engineered to overexpress murine Nectin-4) cells. Mice were randomized into treatment groups (n=6/cohort) when average tumor volumes reached around 107 mm^3 and were treated with 21 daily doses of vehicle (25 mM histidine, 10% sucrose, pH7). BCY11863 treatment was done at three different total dose levels (3, 10 and 30 mg/kg total weekly dose) fractionated in three different schedules (QD: daily; BIW: twice a week or QW: weekly). Different BCY11863 treatment cohorts received either 21 daily doses (0.43, 1.4 or 4.3 mg/kg), 6 twice weekly doses (1.5, 5 or 15 mg/kg) or 3 weekly doses (3, 10 or 30 mg/kg). All treatments were administered intravenously (IV). Tumor growth was monitored until tumor reached volumes over 2000 mm^3 or until 31 days after treatment initiation. Complete responders (animals with no palpable tumors) were followed until D52.

The next data set has as its target T1, mouse Nectin-4 (Mus musculus, UniProt Q8R007).
T1 sequence (Q8R007 31-347 limits assumed): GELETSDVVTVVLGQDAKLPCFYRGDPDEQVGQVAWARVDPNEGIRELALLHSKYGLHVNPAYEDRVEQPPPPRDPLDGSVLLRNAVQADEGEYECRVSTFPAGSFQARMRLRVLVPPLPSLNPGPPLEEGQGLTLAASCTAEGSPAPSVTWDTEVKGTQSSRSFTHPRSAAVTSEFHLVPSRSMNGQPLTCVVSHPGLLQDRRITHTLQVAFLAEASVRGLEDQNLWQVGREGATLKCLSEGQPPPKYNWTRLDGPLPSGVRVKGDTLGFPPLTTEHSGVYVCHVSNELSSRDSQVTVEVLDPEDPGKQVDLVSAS
Briefly: SPR direct binding to biotinylated Nectin-4 extracellular domain, mouse. The source says: The binding of BCY11863 to its primary target Nectin-4 and CD137 was characterized using surface plasmon resonance (SPR).

A further data set deals with cyno Nectin-4. Briefly: Multicomponent SPR: Nectin-4 binding to complex captured on biotinylated human CD137, cyno Nectin-4. Conditions: Sandwich Assay, Nectin-4 ECD, biotinylated human CD137 as capture reagent; read-out: SPR KD NHP. The text has this:
To understand whether the binding of BCY11863 to Nectin-4 was altered in the context of the ternary complex, i.e. when also bound to CD137, a multicomponent SPR binding assay was developed. BCY11863 was first captured to human CD137 immobilized on the SPR chip surface and then Nectin-4 from different species were passed over the chip to determine their affinities to the captured BCY11863 (see FIG. 21C). The affinities to Nectin-4 were generally maintained in the presence of CD137 binding as shown below: […]

In a further data set the target is CD137 (Homo sapiens, UniProt Q07011). Briefly: CD137 reporter assay (Promega CD137 luciferase reporter, Jurkat cells) in co-culture with Nectin-4-expressing tumor cells. Conditions: for EC50: Arithmetic mean EC50 (nM). The format is cell-based. On the set-up: host or cells: Jurkat reporter cells.
Chain of CD137 (Q07011 24-255): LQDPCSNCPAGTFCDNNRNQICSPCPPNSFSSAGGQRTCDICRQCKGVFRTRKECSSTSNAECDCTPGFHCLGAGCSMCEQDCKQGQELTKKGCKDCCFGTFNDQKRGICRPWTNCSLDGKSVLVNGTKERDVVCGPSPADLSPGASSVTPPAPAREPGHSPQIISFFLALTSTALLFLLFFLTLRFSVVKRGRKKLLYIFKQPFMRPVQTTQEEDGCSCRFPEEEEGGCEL
Another data set concerns MC38 tumors. Briefly: Anti-tumor activity of BCY13272 in syngeneic MC38 tumor model with re-challenge. Type of data set: in vivo, C57BL/6J-hCD137 mice. The note with it: for complete responders: 6 doses, day 28. The method, then: 6-8 week old female C57BL/6J-hCD137 mice [B-hTNFRSF9(CD137) mice; Biocytogen] were implanted subcutaneously with 1×10^6 MC38 cells. Mice were randomized into treatment groups (n=6/cohort) when average tumor volumes reached around 80 mm^3 and were treated with vehicle (25 mM histidine, 10% sucrose, pH7) intravenously (IV), 8 mg/kg BCY13272, 0.9 mg/kg BCY13272 and 0.1 mg/kg BCY13272 IV. All treatments were given twice a week (BIW) for 6 doses in total. Tumor growth was monitored until Day 28 from treatment initiation. Complete responder animals (n=7) were followed until day 62 after treatment initiation and re-challenged with an implantation of 2×10^6 MC38 tumor cells and tumor growth was monitored for 28 days. In parallel, naïve age-matched control huCD137 C57Bl/6 mice (n=5) were implanted with 2×10^6 MC38 tumor cells monitored for 28 days.

`CCCC[C@@H]1NC(=O)[C@H](Cc2ccc(O)cc2)NC(=O)[C@@H]2CCCN2C(=O)[C@H](CC(=O)O)NC(=O)[C@H](C)NC(=O)[C@H](Cc2ccccc2)NC(=O)[C@@H]2CSCCC(=O)N3CN(CN(C3)C(=O)CCSC[C@@H](C(=O)N[C@@H](C)C(N)=O)NC1=O)C(=O)CCSC[C@H](NC(C)=O)C(=O)N[C@@H](CC(C)(C)C)C(=O)N1CCC[C@H]1C(=O)N[C@@H](CCC(=O)O)C(=O)N[C@H](CCCCNC(=O)CCc1cn(CCOCCOCCOCCN(CCOCCOCCOCCC(=O)N[C@H]3CSCCC(=O)N4CN5CN(C4)C(=O)CCSC[C@H](NC(=O)[C@@H](CC(=O)O)NC(=O)[C@H](Cc4cccc6ccccc46)NC(=O)[C@@H]4CCCN4C3=O)C(=O)N[C@@H](CCSC)C(=O)N[C@@H](CCCCNC(=N)N)C(=O)N[C@@H](CC(=O)O)C(=O)N[C@@H](Cc3c[nH]c4ccccc34)C(=O)N[C@@H](CO)C(=O)N[C@@H]([C@@H](C)O)C(=O)N3CCC[C@H]3C(=O)N3C[C@H](O)C[C@H]3C(=O)N[C@@H](Cc3c[nH]c4ccccc34)C(=O)N[C@H](C(N)=O)CSCCC5=O)CCOCCOCCOCCn3cc(CCC(=O)NCCCC[C@H]4NC(=O)[C@H](CCC(=O)O)NC(=O)[C@@H]5CCCN5C(=O)[C@H](CC(C)(C)C)NC(=O)[C@@H](NC(C)=O)CSCCC(=O)N5CN6CN(C5)C(=O)CCSC[C@H](NC(=O)[C@H](Cc5ccc(O)cc5)NC(=O)[C@@H]5CCCN5C4=O)C(=O)N[C@@H](Cc4ccccc4)C(=O)N[C@@H](C)C(=O)N[C@@H](CC(=O)O)C(=O)N4CCC[C@H]4C(=O)N[C@@H](Cc4ccc(O)cc4)C(=O)N[C@@H](CCCC)C(=O)N[C@H](C(=O)N[C@@H](C)C(N)=O)CSCCC6=O)nn3)nn1)C(=O)N1CCC[C@H]1C(=O)N[C@@H](Cc1ccc(O)cc1)C(=O)N2` [BCY11863]: the tumor growth entry in the data set with MC38 #13 tumors (1 or 10 mg/kg, QD or Q3D, ip, p<0.05 vs vehicle, 2 cohorts by day 7, all by day 14) was “significant reduction”. Besides, in the data set with MC38 #13 tumors (by day 48, all cohorts, 1 or 10 mg/kg, QD or Q3D, ip), the “animals responded completely, no palpable tumors” value is 22 out of 24. For the same compound, the complete tumor responses was 4 out of 6 in the data set with MC38 #13 tumors (5 mg/kg at 0 h and 24 h on D0 and D7, IV); “one out of 6” in the data set with MC38 #13 tumors (10 mg/kg at 0 h on D0 and D7, IV). Moreover, the complete responders in the data set on MC38 #13 tumors (5 mg/kg BIW) is given as 6/6; in the data set on MC38 #13 tumors (BIW (1.5, 5 or 15 mg/kg)), 15/18; in the data set on MC38 #13 tumors (QD (0.43, 1.4 or 4.3 mg/kg)) it was 12/18; in the data set on MC38 #13 tumors (QW (3, 10 or 30 mg/kg)) it was 6/18. Further, the equilibrium dissociation constant (Kd) is 5 to 27 nM on mouse Nectin-4 (KD, biotinylated ECD captured on streptavidin chip); 4.6 ± 2.1 nM at mouse Nectin-4 (SPR KD Mouse (25° C.), Direct Binding, biotinylated Nectin-4 extracellular domain, 25° C.); 28 ± 5 nM on cyno Nectin-4. The half-maximal effective concentration (EC50) on CD137 (co-culture with CT26#7 (mouse)) was 0.14 ± 0.07 nM; at CD137 (co-culture with HT1376 (human), Table 1B), 0.52 ± 0.3 nM; on CD137 (co-culture with MC38#13 (mouse)) it was 0.31 ± 0.26 nM; at CD137 (co-culture with MDA-MB-468 (human)), 0.23 ± 0.01 nM; at CD137 (co-culture with NCI-H292 (human), Table 1B), 0.28 ± 0.2 nM; at CD137 (co-culture with NCI-H322 (human)) it was 0.33 ± 0.21 nM. The compound also gave a concentration for a half-maximal effect (EC50) on CD137 (co-culture with T47D (human)) of 0.42 ± 0.24 nM. Also, the “CD137 activation in CD137 reporter assay” value at CD137 (FIG. 1A, Nectin-4 expressing H292 cells) is on record as “induces strong CD137 activation”. Also, the “Fold improvement in EC50 over BCY10000 on same plate” value at CD137 (co-culture with NCI-H292) is recorded as 4.56 fold. Also, at CD137 (co-culture with NCI-H292), the “Fold improvement in Emax over BCY10000 on same plate” value was 2.16 fold. The “Fold Induction over Background” value at CD137 (co-culture with NCI-H292, Table 1A) stood at 81 ± 29 fold.
On to “I: A[hArg]DC[Hyp]LVNPLCLEP[d1Nal]WTC-NH2 / II: Ac-C[tBuAla]PE[dK]PYCFADPY[Nle]CA-NH2 / III: Ac-C[tBuAla]PE[dK]PYCFADPY[Nle]CA-NH2 (linker I:4-I:11-I:18, II:1-II:8-II:15, III:1-III:8-III:15 via TATA; linker I:N-II:5-III:5 via X1) [BCY13272]”, for which the complete responders is 2 out of 6 with MC38 tumors (0.9 mg/kg IV BIW) and 5 out of 6 in the data set on MC38 tumors (8 mg/kg IV BIW). Further, the “tumor regrowth after MC38 re-challenge of complete responders” value in the data set on MC38 tumors (re-challenge day 62, monitored 28 days) is “no tumor regrowth”.
